Assay results from ChEMBL document CHEMBL1201862, “PubChem BioAssay data set” (2004).
Activity calls are given as the source filed them.

Legend:
[1] = system: HEK293; assay: cells; assay type: functional, cell-based; conditions: Homo sapiens
[2] = target: T1, Heat shock factor protein 1 (Mus musculus, UniProt P38532); assay: HSF1 potentiators in luciferase reporter cells, confirmation, cell-based, NIH3T3, luminescence, dose retest (AID 435004); assay type: functional;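 further: stress induced by proteasome inhibitor MG132 added 30 min after compound; luciferase reporter driven by HSF1 response element in NIH3T3 cells; actives raise luminescence as potentiators of the MG132 stress response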
T1 sequence (P38532 whole entry): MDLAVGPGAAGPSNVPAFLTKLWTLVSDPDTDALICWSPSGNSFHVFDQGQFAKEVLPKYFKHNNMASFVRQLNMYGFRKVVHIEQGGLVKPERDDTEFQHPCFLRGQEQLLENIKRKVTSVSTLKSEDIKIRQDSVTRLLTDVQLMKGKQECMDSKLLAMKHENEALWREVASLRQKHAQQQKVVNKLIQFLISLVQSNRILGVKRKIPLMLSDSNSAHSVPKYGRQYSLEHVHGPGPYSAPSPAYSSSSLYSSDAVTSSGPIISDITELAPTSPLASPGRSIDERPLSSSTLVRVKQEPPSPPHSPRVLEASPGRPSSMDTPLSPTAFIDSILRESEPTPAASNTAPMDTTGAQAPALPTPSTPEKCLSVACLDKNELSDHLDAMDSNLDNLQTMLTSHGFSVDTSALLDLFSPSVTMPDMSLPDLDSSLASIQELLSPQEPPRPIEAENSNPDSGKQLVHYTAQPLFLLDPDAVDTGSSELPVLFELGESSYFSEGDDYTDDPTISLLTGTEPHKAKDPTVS

[3] = system: HEK293; assay: cells; assay type: functional, cell-based; conditions: Homo sapiens; remark: listed apart in the source
[4] = C. albicans growth with fluconazole, confirmation, fluorescence, retest (AID 2467); assay type: functional, cell-based
[5] = system: HEK293; assay: cells; assay type: functional, cell-based; conditions: Homo sapiens; remark: listed apart in the source
[6] = NIH-3T3 fibroblast cytotoxicity, dose response, cytotoxicity control, cell-based, fluorescence, Alamar Blue, secondary assay (AID 2327); assay type: functional;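 further: NIH-3T3 mouse fibroblasts cultured with fluconazole at 8 µg/mL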
[7] = control 3'UTR Renilla luciferase suppression, dose response, counter-screen for Shn3 inhibitor project, cell-based, Clone20-Shn3RL, cherry-picked (AID 624133); assay type: functional
[8] = system: HEK293; assay: NOD1 signaling inhibitors, primary screen, cell-based, luminescence, uHTS (AID 1578); assay type: functional; conditions: Homo sapiens
[9] = inhibitors of intracellular T. cruzi replication, confirmation, NIH3T3 host cells, beta-gal luminescence (AID 2044); assay type: functional, cell-based;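 further: intracellular parasites grown in NIH/3T3 mouse fibroblasts as host cells; luminescent beta-galactosidase reporter signal from transgenic T. cruzi replicating inside host cells; inhibitors lower the luminescence signal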
[10] = Shn3 3'UTR reporter inhibitors, dose response, cell-based, Clone20 osteoblasts, firefly luciferase, cherry-picked (AID 624132); assay type: functional;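 further: firefly luciferase luminescence from reporter carrying the Shn3 3'UTR in osteoblasts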
[11] = non-specific cell cytotoxicity, dose response, cytotoxicity control for PAX8 inhibitor project, plate reader, dry powder samples (AID 743021); assay type: functional, cell-based
[12] = target: Nucleotide-binding oligomerization domain-containing protein 2 (Homo sapiens, UniProt Q9HC29); assay: NOD2 signaling inhibitors, cell-based, luminescence, uHTS, HEK293 (AID 1566); assay type: functional
Nucleotide-binding oligomerization domain-containing protein 2, sequence (Q9HC29 whole entry, the tested form may be a part): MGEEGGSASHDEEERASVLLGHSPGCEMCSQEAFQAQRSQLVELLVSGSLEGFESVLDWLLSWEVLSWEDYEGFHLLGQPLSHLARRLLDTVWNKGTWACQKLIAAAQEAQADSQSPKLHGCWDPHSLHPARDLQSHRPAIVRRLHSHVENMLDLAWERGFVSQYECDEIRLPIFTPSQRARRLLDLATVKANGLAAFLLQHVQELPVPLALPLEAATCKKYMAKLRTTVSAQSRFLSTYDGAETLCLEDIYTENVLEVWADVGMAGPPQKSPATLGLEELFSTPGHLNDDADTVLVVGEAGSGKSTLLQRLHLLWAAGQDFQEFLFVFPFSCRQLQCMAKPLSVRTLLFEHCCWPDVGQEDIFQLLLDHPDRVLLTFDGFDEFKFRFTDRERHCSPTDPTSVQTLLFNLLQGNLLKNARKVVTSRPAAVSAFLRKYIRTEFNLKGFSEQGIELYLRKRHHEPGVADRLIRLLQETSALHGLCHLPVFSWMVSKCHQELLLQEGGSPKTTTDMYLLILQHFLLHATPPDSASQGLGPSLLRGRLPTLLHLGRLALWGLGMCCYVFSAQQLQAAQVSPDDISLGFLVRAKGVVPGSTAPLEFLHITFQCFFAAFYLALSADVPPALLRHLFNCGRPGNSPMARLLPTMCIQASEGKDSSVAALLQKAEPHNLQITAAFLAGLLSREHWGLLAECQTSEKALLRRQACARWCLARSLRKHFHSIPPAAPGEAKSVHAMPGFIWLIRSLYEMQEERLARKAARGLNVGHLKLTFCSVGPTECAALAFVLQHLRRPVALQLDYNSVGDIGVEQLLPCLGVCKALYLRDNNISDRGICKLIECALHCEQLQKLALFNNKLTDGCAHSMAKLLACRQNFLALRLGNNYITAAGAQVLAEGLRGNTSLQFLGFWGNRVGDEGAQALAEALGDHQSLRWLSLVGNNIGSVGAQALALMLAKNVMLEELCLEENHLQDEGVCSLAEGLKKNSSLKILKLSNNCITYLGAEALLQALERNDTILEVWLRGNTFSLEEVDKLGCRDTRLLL

[13] = cytotoxicity toward NIH3T3 fibroblasts, dose response, counter-screen, cell-based, ATP luminescence, mouse fibroblasts (AID 2010); assay type: functional;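 further: cells exposed to compound for about 90 hours before reading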
[14] = system: HEK293; assay: NOD2 signaling inhibitors in MDP-stimulated cells, cell-based, uHTS, luminescence (AID 2001); assay type: functional; conditions: Homo sapiens
[15] = HepG2 cell cytotoxicity, dose response, cytotoxicity control for Shn3 inhibitor project, CellTiter-Glo, cherry-picked (AID 624134); assay type: functional, cell-based
[16] = target: T2, Alkaline phosphatase, tissue-nonspecific isozyme (Homo sapiens, UniProt P05186); assay: TNAP enzyme inhibition by screening hits, dose response, selectivity assay for mouse IAP inhibitor project, biochemical, human TNAP, uHTS hits (AID 488906); assay type: functional
T2 sequence (P05186 whole entry): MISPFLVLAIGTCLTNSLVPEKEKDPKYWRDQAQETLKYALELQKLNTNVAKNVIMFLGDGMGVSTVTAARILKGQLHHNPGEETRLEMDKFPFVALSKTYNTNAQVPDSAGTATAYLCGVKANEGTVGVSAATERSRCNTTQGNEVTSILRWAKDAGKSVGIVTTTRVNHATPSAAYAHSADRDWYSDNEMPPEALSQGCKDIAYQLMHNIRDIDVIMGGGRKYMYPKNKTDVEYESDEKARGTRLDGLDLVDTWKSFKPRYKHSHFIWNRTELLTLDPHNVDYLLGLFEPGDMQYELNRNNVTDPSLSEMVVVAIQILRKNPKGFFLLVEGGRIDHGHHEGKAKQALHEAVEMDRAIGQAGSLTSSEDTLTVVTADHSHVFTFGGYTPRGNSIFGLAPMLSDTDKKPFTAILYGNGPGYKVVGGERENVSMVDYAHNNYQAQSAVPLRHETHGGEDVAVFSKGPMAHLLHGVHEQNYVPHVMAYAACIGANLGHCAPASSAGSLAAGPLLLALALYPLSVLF

[17] = target: Intestinal-type alkaline phosphatase (Mus musculus, UniProt P24822); assay: PubChem AID 488785; assay type: functional
Intestinal-type alkaline phosphatase (Mus musculus, UniProt P24822), sequence (P24822 whole entry): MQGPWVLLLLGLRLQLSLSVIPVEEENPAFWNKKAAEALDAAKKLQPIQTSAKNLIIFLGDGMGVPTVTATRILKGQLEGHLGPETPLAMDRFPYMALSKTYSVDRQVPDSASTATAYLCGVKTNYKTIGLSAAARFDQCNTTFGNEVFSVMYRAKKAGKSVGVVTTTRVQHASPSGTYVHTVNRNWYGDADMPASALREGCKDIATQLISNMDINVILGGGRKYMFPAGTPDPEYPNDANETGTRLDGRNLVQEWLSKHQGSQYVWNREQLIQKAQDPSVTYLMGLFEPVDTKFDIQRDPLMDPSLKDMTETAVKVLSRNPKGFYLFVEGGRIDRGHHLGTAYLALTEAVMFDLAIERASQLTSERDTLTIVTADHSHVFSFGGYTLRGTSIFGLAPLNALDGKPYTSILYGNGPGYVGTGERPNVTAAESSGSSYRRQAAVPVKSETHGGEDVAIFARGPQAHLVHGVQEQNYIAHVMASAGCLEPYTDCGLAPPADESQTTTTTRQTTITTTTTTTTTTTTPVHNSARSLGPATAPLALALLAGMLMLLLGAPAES

[18] = target: Intestinal-type alkaline phosphatase (Homo sapiens, UniProt P09923); assay: inhibition of human intestinal alkaline phosphatase – biochemical, dose response (AID 488876); assay type: functional
Intestinal-type alkaline phosphatase (Homo sapiens, UniProt P09923), sequence (P09923 whole entry): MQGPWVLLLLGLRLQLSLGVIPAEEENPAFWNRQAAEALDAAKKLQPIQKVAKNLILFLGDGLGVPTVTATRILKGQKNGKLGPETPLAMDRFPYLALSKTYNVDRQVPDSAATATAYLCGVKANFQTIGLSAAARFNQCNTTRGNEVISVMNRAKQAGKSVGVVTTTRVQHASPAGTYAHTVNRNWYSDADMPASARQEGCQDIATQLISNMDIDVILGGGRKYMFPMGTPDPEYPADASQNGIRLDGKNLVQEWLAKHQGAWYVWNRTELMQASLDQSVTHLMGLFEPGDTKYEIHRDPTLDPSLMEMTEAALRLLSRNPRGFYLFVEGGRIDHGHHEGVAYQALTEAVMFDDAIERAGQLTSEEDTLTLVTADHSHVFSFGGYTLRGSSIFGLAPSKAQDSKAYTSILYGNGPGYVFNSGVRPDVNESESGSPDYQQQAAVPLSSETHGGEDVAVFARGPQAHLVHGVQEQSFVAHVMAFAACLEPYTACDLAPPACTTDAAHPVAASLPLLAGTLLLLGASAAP

[19] = target: T3, Long-chain-fatty-acid--AMP ligase FadD28 (Mycobacterium tuberculosis, UniProt P9WQ59); assay: Fluorescence polarization aasay to screen for inhibitors that compete for the binding of FadD28 to a bisubstrate Measured in Biochemical System Using Plate Reader - 2147-01_Inhibitor_Dose_CherryPick_Activity.; assay type: functional, Mycobacterium tuberculosis H37Rv
T3 sequence (P9WQ59 whole entry): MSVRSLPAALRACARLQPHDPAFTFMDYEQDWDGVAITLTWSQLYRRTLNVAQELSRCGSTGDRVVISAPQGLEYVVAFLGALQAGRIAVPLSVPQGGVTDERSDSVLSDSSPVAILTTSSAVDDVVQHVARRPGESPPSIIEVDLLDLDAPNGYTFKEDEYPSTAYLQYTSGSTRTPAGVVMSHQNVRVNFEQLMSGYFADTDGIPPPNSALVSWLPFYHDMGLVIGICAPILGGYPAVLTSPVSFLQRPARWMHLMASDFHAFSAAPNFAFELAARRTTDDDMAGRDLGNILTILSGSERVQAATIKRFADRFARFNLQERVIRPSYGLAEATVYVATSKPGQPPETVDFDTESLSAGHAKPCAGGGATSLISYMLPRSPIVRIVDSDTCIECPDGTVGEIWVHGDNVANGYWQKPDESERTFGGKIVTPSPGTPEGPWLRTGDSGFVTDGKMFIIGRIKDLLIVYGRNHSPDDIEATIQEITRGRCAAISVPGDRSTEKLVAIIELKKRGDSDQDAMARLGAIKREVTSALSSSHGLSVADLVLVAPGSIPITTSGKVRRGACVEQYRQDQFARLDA

[20] = target: Heat shock protein HSP 90-alpha (Homo sapiens, UniProt P07900); assay type: functional, organism-based
[21] = Counterscreen for AddAB inhibitors: absorbance-based bacterial cell-based high throughput dose response assay for inhibitors of bacterial viability. [Related pubchem assays (depositor defined):AID435030, AID449728, AID449731, AID488942, AID488955, AID488956]; assay type: functional
[22] = target: Exodeoxyribonuclease V (Escherichia coli (strain K12), UniProt P04993+P07648+P08394); assay: E. coli RecBCD inhibitors, dose response, counter-screen for AddAB inhibitor project, absorbance, V66 E. coli, mutant T4 phage (AID 492957); assay type: functional, cell-based, Escherichia coli str. K-12 substr. MG1655
Exodeoxyribonuclease V, sequence (P04993 whole entry): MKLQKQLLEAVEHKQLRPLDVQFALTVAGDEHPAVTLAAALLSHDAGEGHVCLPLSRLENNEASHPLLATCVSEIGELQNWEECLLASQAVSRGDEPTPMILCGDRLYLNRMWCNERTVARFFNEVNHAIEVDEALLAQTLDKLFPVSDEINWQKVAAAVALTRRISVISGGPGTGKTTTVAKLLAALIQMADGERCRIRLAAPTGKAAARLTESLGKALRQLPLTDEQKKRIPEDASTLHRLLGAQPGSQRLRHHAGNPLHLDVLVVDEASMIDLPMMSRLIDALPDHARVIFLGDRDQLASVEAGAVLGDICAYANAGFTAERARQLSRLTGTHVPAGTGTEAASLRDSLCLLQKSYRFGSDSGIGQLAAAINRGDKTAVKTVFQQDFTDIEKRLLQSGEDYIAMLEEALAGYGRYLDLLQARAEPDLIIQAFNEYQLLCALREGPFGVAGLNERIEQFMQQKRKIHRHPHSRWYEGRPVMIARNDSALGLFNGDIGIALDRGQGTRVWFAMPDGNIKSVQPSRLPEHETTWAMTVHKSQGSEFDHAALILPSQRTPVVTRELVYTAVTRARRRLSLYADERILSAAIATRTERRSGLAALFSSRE
Exodeoxyribonuclease V, sequence (P07648 whole entry): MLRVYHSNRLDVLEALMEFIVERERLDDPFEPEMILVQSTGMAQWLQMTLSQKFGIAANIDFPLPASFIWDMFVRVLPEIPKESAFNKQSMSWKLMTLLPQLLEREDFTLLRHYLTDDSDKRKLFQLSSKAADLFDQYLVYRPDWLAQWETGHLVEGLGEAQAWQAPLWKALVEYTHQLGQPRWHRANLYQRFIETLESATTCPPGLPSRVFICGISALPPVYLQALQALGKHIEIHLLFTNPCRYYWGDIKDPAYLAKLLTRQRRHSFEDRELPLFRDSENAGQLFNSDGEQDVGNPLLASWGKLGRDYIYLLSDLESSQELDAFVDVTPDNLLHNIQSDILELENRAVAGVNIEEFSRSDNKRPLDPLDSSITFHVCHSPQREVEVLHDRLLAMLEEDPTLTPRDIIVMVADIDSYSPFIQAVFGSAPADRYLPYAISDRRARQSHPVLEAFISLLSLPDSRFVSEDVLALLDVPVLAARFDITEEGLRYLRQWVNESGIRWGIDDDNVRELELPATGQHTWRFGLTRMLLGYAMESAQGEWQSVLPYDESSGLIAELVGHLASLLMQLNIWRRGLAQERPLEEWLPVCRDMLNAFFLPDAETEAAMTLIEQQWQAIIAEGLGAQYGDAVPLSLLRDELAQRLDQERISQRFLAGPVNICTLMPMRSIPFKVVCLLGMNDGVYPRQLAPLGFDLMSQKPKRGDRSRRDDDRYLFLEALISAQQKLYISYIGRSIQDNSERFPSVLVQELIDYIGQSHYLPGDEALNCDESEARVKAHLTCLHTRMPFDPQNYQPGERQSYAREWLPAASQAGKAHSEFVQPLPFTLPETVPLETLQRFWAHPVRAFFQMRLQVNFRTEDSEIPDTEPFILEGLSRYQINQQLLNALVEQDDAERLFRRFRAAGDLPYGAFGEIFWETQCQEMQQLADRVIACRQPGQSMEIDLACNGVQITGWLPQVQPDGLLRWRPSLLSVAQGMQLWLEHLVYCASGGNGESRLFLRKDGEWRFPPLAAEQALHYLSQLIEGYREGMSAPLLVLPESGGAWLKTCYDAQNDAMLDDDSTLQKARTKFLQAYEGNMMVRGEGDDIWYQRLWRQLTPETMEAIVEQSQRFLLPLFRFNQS
Exodeoxyribonuclease V, sequence (P08394 whole entry): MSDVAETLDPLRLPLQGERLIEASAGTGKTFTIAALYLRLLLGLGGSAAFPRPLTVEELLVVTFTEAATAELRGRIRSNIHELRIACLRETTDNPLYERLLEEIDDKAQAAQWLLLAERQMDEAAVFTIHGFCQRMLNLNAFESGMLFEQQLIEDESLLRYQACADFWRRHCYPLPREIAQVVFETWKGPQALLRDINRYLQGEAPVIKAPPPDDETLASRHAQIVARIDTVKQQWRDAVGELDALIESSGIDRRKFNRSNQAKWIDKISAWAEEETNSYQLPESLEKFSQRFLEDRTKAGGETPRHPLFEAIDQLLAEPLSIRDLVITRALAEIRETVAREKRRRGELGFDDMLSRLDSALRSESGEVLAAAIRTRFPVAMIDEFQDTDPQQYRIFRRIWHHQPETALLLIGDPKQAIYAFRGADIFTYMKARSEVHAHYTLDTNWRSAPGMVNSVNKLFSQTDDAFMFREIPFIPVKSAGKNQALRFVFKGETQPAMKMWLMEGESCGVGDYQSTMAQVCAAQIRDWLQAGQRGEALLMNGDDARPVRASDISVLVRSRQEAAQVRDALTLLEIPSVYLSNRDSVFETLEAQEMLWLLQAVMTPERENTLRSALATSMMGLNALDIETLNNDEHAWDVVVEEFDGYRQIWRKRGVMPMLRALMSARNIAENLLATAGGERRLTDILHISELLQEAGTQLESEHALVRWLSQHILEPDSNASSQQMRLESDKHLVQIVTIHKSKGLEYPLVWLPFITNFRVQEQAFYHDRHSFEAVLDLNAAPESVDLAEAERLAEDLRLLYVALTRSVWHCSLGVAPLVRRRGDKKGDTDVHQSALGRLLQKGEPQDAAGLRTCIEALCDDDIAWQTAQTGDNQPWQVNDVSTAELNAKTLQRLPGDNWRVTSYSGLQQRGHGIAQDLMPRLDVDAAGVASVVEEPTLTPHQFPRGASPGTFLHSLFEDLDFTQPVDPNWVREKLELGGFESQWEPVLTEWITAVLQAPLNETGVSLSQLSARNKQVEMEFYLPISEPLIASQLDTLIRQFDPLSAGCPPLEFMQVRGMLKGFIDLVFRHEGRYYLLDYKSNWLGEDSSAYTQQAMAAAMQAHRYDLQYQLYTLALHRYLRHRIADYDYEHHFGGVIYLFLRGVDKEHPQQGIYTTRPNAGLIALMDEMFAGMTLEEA

Q: Which results are given for `O=[N+]([O-])c1cccnc1S(=O)(=O)c1ccccc1`?
A: IC50 [1]: 2.38 µM (active); EC50 [2]: 11.9 µM (active); IC50 [3]: 11.6 µM (active); EC50 [4]: 2.63 µM (active); IC50 [5]: > 20 µM (inactive); EC50 [6]: 4.24 µM (inconclusive); AC50 [7]: 5.79 µM (active); EC50 [8]: 12.4 µM (active); EC50 [9]: 3.71 µM (active); AC50 [10]: 4.79 µM (active); AC50 [11]: 24.2 µM (active); EC50 [12]: > 20 µM (inactive); EC50 [13]: 4.16 µM (active); IC50 [14]: 4.56 µM (active); AC50 [15]: 51 µM (active)

Q: What does the source list for `O=C(NN1C(=O)/C(=C/c2ccc(O)cc2)SC1=S)c1ccccc1O`?
A: IC50 [16]: > 100 µM (inactive); IC50 [17]: 4.68 µM (active); IC50 [18]: > 100 µM (inactive); AC50 [19]: 61.9 µM (active)

Q: With `O=C1c2ccccc2NC(c2ccc(-c3ccc(C(F)(F)F)cc3)o2)N1O` (configuration not stated) as the molecule, how does the AC50 [20] read?
A: 7.23 µM (active)

Q: What about the IC50 [21] of the same molecule?
A: > 119 µM (inactive)

Q: What about the IC50 [22] of the same molecule?
A: > 119 µM (inactive)
